This note sets out measurements from ChEMBL document CHEMBL1142324, “Synthesis and cerebral uptake of 1-(1-[(11)C]methyl-1H-pyrrol-2-yl)-2-phenyl-2-(1-pyrrolidinyl)ethanone, a novel tracer for positron emission tomography studies of monoamine oxidase type A” (J Med Chem, 2008).

What all share (type): ADME, organism-based, Sus scrofa
Settings in all cases: read-out: Stability

Data set [1] can be described thus: Metabolic stability in iv dosed pig plasma after 30 seconds.
A short description of data set [2]: Metabolic stability in iv dosed pig plasma after 2 mins.
Data set [3] can be described thus: Metabolic stability in iv dosed pig plasma after 10 mins.
A short description of data set [4]: Metabolic stability in iv dosed pig plasma after 30 mins.
Data set [5] can be described thus: Metabolic stability in iv dosed pig plasma after 50 mins.

For `[11CH3]n1cccc1C(=O)[C@H](c1ccccc1)N1CCCC1`, the remaining at 0.5 min in data set [1] turned out to be 99.7%. The remaining at 2 min in data set [2] worked out at 98%. In addition, the remaining at 10 min in data set [3] was found to be 68%. Further, the remaining at 0.5 h in data set [4] was 41%. Besides, the remaining at 50 min in data set [5] stood at 24%.

For `[11CH3]n1cccc1C(=O)[C@@H](c1ccccc1)N1CCCC1`, in data set [1], the remaining at 0.5 min turned out to be 99.7%. The remaining at 2 min in data set [2] was determined as 98%. In data set [3], the remaining at 10 min is 68%. Also, the remaining at 0.5 h in data set [4] came out at 41%. Moreover, in data set [5], the remaining at 50 min is 24%.
